Measurements published in PMC4222488, “Lipid droplet binding thalidomide analogs activate endoplasmic reticulum stress and suppress hepatocellular carcinoma in a chemically induced transgenic mouse model” (Lipids in Health and Disease, 2013).

How the values were obtained:
[1] = test system: Hep3B; assay: MTS cytotoxicity assay (CellTiter 96 AQueous); type: cell-based; settings: Homo sapiens, 48 h exposure
Protocol: (§1) Hep3B and HepG2 cells were grown in mixture of Dulbecco’s Modified Eagle Medium (D-MEM) (high glucose) (Gibco BRL, Carlsbad, CA, USA) and Nutrient Mixture F-12 Ham (Sigma, St. Louis, MO, USA) containing penicillin (50 IU/ml)–streptomycin ([…]) and 10% fetal bovine serum. For cytotoxicity assays, cells were seeded at a density of 10.000 cells per well into 96-well cell culture plates and maintained in a humidified atmosphere of 95% air and 5% CO2 for 12 h, then treated with different concentrations of Ac-2010 or Ac-915. MTS (3-(4,5-dimethylthiazol-2-yl)-5-(3-carboxymethoxy-phenyl)-2-(4-sulfophenyl)-2H-tetrazolium) assay was applied to drug treated and control (0.2% DMSO) cells with CellTiter 96® AQueous Assay (Promega, Madison, WI) according to the manufacturer’s protocol.
(§2) Their cytotoxic effects on human hepatocellular carcinoma cell lines (namely: HepG2, Hep3B and Huh7) were measured by using the MTS assay. […] Both Ac-915 and Ac-2010 induced cell death of liver cancer cells at sub- or low micromolar ranges.

[2] = test system: HepG2; assay: MTS cytotoxicity assay (CellTiter 96 AQueous); type: cell-based; settings: Homo sapiens, 48 h exposure
Protocol: as §1, §2

[3] = test system: Huh7; assay: MTS cytotoxicity assay (CellTiter 96 AQueous); type: cell-based; settings: Homo sapiens, Huh-7, 48 h exposure
Protocol: as §1, §2

[4] = molecular target: T1, human HSP70 (Homo sapiens, UniProt P0DMV8); assay: Resonant waveguide optical biosensor binding assay; settings: immobilized human recombinant protein, curve fitting
T1 construct: purchased Sino Biological
Protocol: (§3) Protein immobilization was accomplished by applying 10 μL of 50 μg/mL human PDI (Sino Biological Inc., Beijing, China) or 50 μg/mL human HSP70 (Sino Biological) or 100 μg/mL human HSP90 (Sino Biological) in 20 mM sodium acetate pH 5.5 into a preactivated 384-well biochemical plate (Perkin Elmer) and incubating overnight at 4°C. The microplates were subsequently washed three times with assay buffer (PBS, pH 7.4/0.005% Tween 20/3% DMSO) and, after 25 minutes thermal equilibration, a baseline reading was taken in the Enspire Multimode Plate Reader (Perkin Elmer). Finally, 15 μL assay buffer was added including different concentrations of Ac-915 or Ac-2010. The Enspire response is measured as a shift in reflected wavelength and is expressed in picometers (pm). The affinity (KD) was calculated using a curve fitting method.
(§4) Direct biomolecular interactions were determined between human recombinant and purified HSP70, HSP90, PDI proteins and Ac-915 and Ac-2010 with resonant waveguide optical biosensor technology in a biochemical binding assay. The technology is based on a microplate with resonant waveguide optical biosensors integrated into each well and a high throughput screening-compatible optical reader (Enspire system, Perkin Elmer). The biochemical interaction between the small molecule and the protein was measured as a shift in reflected wavelength and is expressed in picometers (pm). The binding of both analogs to each of the protein was specific and saturable with the dose response (data not shown).

[5] = molecular target: human HSP90; assay: Resonant waveguide optical biosensor binding assay; settings: immobilized human recombinant protein, curve fitting
Protocol: as §3, §4

[6] = test system: HepG2; assay: Real-time cytotoxicity, xCELLigence System (RT-CES); type: cell-based, human; settings: for Cytotoxic effect in real time (cell index): HepG2, impedance monitored for 48 h
Protocol: (§5) Cytotoxicity and cell migration was monitored with the real-time cell electronic sensing, xCELLigence System (RT-CES, Acea-Roche). Cytotoxicity effects of Ac-2010 and Ac-915 compounds were tested on two different hepatocellular carcinoma cell lines (HepG2 and Hep3B). The RT-CES 96-well E-plate was coated with gelatin and then washed twice with PBS. Growth media (respective to cell types) were then gently dispensed into each well of the 96-well E-plate for background readings by the RT-CES system prior to addition of cell suspension at a density of 6000 cells/well. Devices containing the cell suspension were kept at 37° in a CO2 incubator for 8 h prior to treatment with different concentrations of Ac-2010 and Ac-915. Cell growth was monitored for 48 h by measurements of electrical impedance every 5 min.
(§6) Cytotoxic effects of Ac-915 and Ac-2010 compounds were also tested by the real-time cell electronic sensing, xCELLigence System (RT-CES) on two different hepatocellular carcinoma cell lines (Huh7, HepG2). This technology is based on proprietary microelectronic cell sensor arrays that are integrated in the bottom of the microtiter plates (96-well E-plate). When cells are cultured in a well, impedance is measured between sensor electrodes and the attached cells that act as insulators, which is converted into cell index number.

[7] = test system: Huh7; assay: as above; type: cell-based, human; settings: Huh7, impedance monitored for 48 h
Protocol: as §5, §6

[8] = test system: Hep3B; assay: ROS determination (DCFDA fluorescence, FACS); type: cell-based, human
Protocol: ROS generation was determined by the increase in DCFDA (2',7'-dichlorodihydrofluorescein diacetate, Sigma) fluorescence after drug stimulation. HepG2 cells were washed, resuspended in 1% bovine serum albumin in Hanks buffered saline solution (BSA-HBSS) at 10^6 cells/mL and maintained at 37°C for analysis. Cells were treated with the indicated drugs (Ac-915, Ac-2010). DCFDA was added 60 min prior to harvest, at 2 μM final concentration and intracellular ROS production was measured by using a fluorescence activated cell sorter (Beckton Dickinson) with 20,000 events/test. All the other parameters and calculations were as described before.
Toxic compounds and numerous anticancer agents interfere with chaperone and ER functions leading to cellular stress which is manifested by elevated reactive oxygen species (ROS) and dramatic decrease in the anti-oxidant, glutathione (GSH) level. To investigate whether Ac-915 and Ac-2010 exert a pro-oxidative effect as determined earlier for other amino-trifluoro-phthalimides and “redox-reactive” thalidomide analogs, we measured the presence of ROS in human hepatocellular carcinoma cells (Hep3B) Figure 4a. To reveal the correlation of depletion of glutathione and ROS production of the analogs we determined the intracellular concentrations of glutathione. […]

[9] = test system: Hep3B; assay: Glutathione measurement (GSH-Glo); type: cell-based, human; settings: treated Hep3B cells
Protocol: HepG2 cells (20000 cells per well in a 96-well plate) were incubated with Ac-915 in 50 μl PBS for 2 hours in a humidified atmosphere of 95% air and 5% CO2. 50 μl aliquots of prepared 2X GSH-GloTM Reagent (GSH-GloTM Glutathione assay; Promega, Madison, WI) were added to the wells and incubation continued at room temperature for 30 minutes. 100 μl of reconstituted Luciferin Detection Reagent (Promega) was added to each well and cells were incubated for 15 minutes further. Negative controls and blank reactions were also prepared. The amount of light produced was detected by luminometer.
Toxic compounds and numerous anticancer agents interfere with chaperone and ER functions leading to cellular stress which is manifested by elevated reactive oxygen species (ROS) and dramatic decrease in the anti-oxidant, glutathione (GSH) level. To investigate whether Ac-915 and Ac-2010 exert a pro-oxidative effect as determined earlier for other amino-trifluoro-phthalimides and “redox-reactive” thalidomide analogs, we measured the presence of ROS in human hepatocellular carcinoma cells (Hep3B) Figure 4a. To reveal the correlation of depletion of glutathione and ROS production of the analogs we determined the intracellular concentrations of glutathione. To determine whether Ac-915 and Ac-2010 affect intracellular GSH levels Hep3B cells were treated with compounds and GSH levels were recorded.

[10] = Tissue distribution by fluorescent confocal microscopy of native tissue sections after i.v. injection; type: in vivo; settings: mice, i.v. 20 mg/kg
Protocol: Mice were injected i.v. with Ac-915 or Ac-2010 (20 mg/kg) and after different time points tissues were dissected, washed in PBS, embedded in Tissue-Tek® O.C.T™ medium. After fast-freezing, the samples were stored at −20°C. Tissue sections (20 μm) were prepared by using a Leica CM1950 cryostat at −20°C. From each tissue (liver, brain, kidney, muscle, heart) three independent images were recorded as above. Images were analyzed with the Olympus Fluoview 1.6 Ver Viewer software.
To determine the tissue distribution of trifluor-amino-phtalimides, compounds were administered by i.v. injection into mice, the animals were killed at different time points and different organs were dissected. Native microscope sections were prepared and analyzed under fluorescent microscope. Because our analogs have strong inherent blue fluorescence, relative tissue distribution can be determined by using fluorescent microscopy with 405 nm laser with DAPI configuration. […] The target organs of Ac-915 seemed to be the kidney and preferentially, the liver.

[11] = test system: DEN-induced liver tumors; assay: DEN-induced hepatocellular carcinoma in Matn2-/- mice; type: in vivo; settings: started 4 months after DEN, assessed 8 months after DEN
Protocol: All mice were fed a commercial diet and water ad libitum and were housed in an animal facility under a 12 h light/dark cycle at constant temperature and humidity. For all of our studies, we employed male Matn2-deficient mice (Matn2^−/−) congenic in the 129/Sv genetic background.
For studies of liver tumor development, 15-day-old mice were treated with a single dose of DEN (Sigma-Aldrich, Budapest, Hungary) dissolved in saline at a dose of 25 mg/kg body weight by i.p. injection. 4 months after DEN injection mice were treated with either Ac-915 for 3 months (n = 15) or with Ac-2010 for 1 month (n = 10). Mice were killed 8 months after DEN administration for determination of tumor occurrence (number of tumor nodules) and liver mass index (liver weight/body weight × 100). Treatments were conducted by i.p. injection of Ac-915 at a dose of 10 mg/kg body weight three times a week or Ac-2010 at a dose of 4 mg/kg body weight three times a week.
For studies of liver tumor development, 15-day-old mice were treated with a single dose of DEN as described previously. Mice in the Ac-915 treated group (n = 15) were treated 4 months after DEN treatment for an additional 3 months. […] Mice were killed 8 months after DEN administration and the number and size of tumors and liver mass index were determined.
Liver samples were analyzed at the same time point, 8 months after DEN administration. […]

[12] = molecular target: T2, PDI (Homo sapiens, UniProt P07237); assay: Protein disulfide isomerase assay (catalytic reduction of insulin, turbidity at 650 nm); type: biochemical; set-up: purchased Sino Biological; settings: insulin reduction in presence of 1 mM DTT, 25°C
Protocol: The assay is based on the measurement of the catalytic reduction of insulin as described by Lundstrom and Holmgren. In this assay, PDI facilitates the reduction of insulin in the presence of DTT. The reduced insulin chains aggregate, and the turbidity is monitored spectrophotometrically at 650 nm. The assay was performed in a 96-well plate format and a volume of 30 μl in the presence of 1 mM DTT, 1 μg PDI (Sino Biological), 0.14 mM bovine pancreas insulin (Sigma), and 0.2 mM EDTA in 100 mM potassium phosphate, pH 7.0. The progress of the reaction was monitored on a 96-well plate reader (Model 680 Microplate Reader, Bio-Rad Laboratories) at 650 nm for 95 minutes at 25°C. Ac-915, Ac-2010 or DMSO control was added prior to the addition of enzyme at the concentrations indicated. The nonenzymatic reduction of insulin by DTT was recorded in a control well without PDI. IC50 values of the compounds were calculated using nonlinear regression analysis.
These values are in good correlation with the KD values determined by direct biochemical interaction measurements using waveguide optical biosensors. The activity of PDI was based on the measurement of the catalytic reduction of insulin as described by Lundstrom and Holmgren. In this assay both analogs inhibited the PDI-induced reduction of insulin in the presence of dithiothreitol. […]

[13] = molecular target: T2, PDI; assay: Resonant waveguide optical biosensor binding assay; set-up: purchased Sino Biological Inc., Beijing, China; settings: immobilized human recombinant protein, curve fitting
Protocol: as §3
as §4, with “The binding of both analogs to each of the protein was specific and saturable with the dose response (data not shown).” left out

[14] = test system: HepG2 cell migration; assay: Real-time cell migration assay, RTCA DP xCELLigence (CIM-plate 16); type: cell-based, human
[15] = Acute toxicity (data not shown); type: in vivo
[16] = Solubility (data not shown); type: physicochemical

T2 sequence (P07237 18-508): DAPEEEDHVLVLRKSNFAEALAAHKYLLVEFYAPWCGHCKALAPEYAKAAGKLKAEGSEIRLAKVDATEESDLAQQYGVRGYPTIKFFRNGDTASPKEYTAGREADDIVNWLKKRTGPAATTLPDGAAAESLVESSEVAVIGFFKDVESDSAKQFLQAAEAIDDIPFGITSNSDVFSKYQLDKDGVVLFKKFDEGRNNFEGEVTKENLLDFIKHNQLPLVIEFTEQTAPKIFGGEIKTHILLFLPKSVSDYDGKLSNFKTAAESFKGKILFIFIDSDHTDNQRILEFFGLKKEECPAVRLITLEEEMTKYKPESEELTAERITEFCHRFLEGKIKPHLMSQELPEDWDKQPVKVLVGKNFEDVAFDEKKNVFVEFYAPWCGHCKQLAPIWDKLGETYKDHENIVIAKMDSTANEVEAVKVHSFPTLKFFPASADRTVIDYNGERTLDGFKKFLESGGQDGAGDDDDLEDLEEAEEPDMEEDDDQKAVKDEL
T1 sequence (P0DMV8 whole entry): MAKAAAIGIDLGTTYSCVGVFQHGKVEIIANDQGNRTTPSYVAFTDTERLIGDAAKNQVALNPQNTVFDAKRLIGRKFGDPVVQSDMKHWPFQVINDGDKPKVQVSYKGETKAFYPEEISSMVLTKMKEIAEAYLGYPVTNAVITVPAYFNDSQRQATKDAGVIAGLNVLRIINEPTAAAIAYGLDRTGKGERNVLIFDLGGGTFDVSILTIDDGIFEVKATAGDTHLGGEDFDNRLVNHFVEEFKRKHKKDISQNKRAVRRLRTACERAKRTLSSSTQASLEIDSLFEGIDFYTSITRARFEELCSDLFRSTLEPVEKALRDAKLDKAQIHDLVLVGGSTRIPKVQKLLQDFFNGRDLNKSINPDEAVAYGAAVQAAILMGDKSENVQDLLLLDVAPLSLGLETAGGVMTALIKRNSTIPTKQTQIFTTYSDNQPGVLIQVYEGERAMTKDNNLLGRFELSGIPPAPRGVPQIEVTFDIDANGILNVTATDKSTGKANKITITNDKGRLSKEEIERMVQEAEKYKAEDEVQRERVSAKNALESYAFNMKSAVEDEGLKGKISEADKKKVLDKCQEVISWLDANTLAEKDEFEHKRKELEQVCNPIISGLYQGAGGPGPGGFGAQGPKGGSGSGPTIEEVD

Row | SMILES | EC50 [1] [µM] | EC50 [2] [µM] | EC50 [3] [µM] | Kd [4] [µM] | Kd [5] [µM] | Cytotoxic effect in real time (cell index) [6] | Cytotoxic effect in real time (cell index) [7] | Intracellular ROS induction [8] | Intracellular GSH levels [9] | IC50 [12] [µM] | Kd [13] [µM] | further results
1 | CC(C)c1cccc(C(C)C)c1N1C(=O)c2c(F)c(F)c(F)c(N[C@@H]3C=CS(=O)(=O)C3)c2C1=O [Ac-915, 2-[2,6-bis(propane-2-yl)phenyl]-4-{[(3R)-1,1-dioxo-2,3-dihydro-thiophene-3-yl]amino}-5,6,7-trifluoro-2,3-dihydro-1H-isoindole-1,3-dione] | 0.76 | 1.21 | 1.66 | 14 | 11.5 | micromolar cytotoxic effects | micromolar cytotoxic effects | induce intracellular reactive oxygen species | depleted intracellular GSH levels | ~15 | ~10.5 | Fluorescence in the liver [10]: strong fluorescent signals; Time of peak fluorescence in the liver [10]: 4 h; Fluorescence in the kidney ([10]; 2 and 4 h after administration): strong signals; Fluorescence in the brain ([10]; 1 h after administration): only a slight fluorescence increase; Fluorescence in the heart ([10]; 4 h after administration): minor fluorescence increase; Liver tumor development vs control mice ([11]; 10 mg/kg i.p. three times a week for 3 months): significantly less tumor development
2 | CC(C)c1cccc(C(C)C)c1N1C(=O)c2c(F)c(F)c(F)c(NC(=O)NC(=O)CCl)c2C1=O [Ac-2010] | 0.54 | 1.05 | 0.94 | ~16 | ~16 | micromolar cytotoxic effects | micromolar cytotoxic effects | induce intracellular reactive oxygen species | depleted intracellular GSH levels | ~9 | ~6 | Cytotoxicity at the migration-inhibiting concentration ([6]; 250 nM, HepG2 cells): no cytotoxicity could be detected; Inhibition of cell migration ([14]; 250 nM): inhibited migration; Inhibition of cell migration ([14]; higher concentration, 2 h after administration): completely inhibited cell migration; Liver tumor incidence, number of tumors and liver mass index vs untreated control ([11]; 4 mg/kg i.p. three times a week for 1 month, p < 0.01): less liver tumor incidence, fewer tumors and lower liver mass index; Acute toxicity compared with Ac-915 [15]: higher acute toxicity; Solubility compared with Ac-915 [16]: better solubility
